In article PMC5218480 (PLoS ONE, 2017):

Test system: MV-4-11 cells
Assay: Gene expression microarray analysis (Affymetrix PrimeView) and GSEA
Format: cell-based, human
Design: RFU PODN (11730768_x_at) / Fold change /veh PODN (11730768_x_at) / RFU LINC00158 (11744669_a_at) / Fold change /veh LINC00158 (11744669_a_at) / RFU DUSP10 (11751237_a_at) / Fold change /veh DUSP10 (11751237_a_at) / RFU ID3 (11757404_x_at) / Fold change /veh ID3 (11757404_x_at) / RFU PLEKHG5 (11737974_s_at) / Fold change /veh PLEKHG5 (11737974_s_at) / RFU LRRC4B (11730491_at) / Fold change /veh LRRC4B (11730491_at) / RFU GIMAP4 (11747438_a_at) / Fold change /veh GIMAP4 (11747438_a_at) / RFU KRT8 (11758183_x_at) / Fold change /veh KRT8 (11758183_x_at) / RFU CNN1 (11734310_a_at) / Fold change /veh CNN1 (11734310_a_at) / RFU VPS37D (11726825_at) / Fold change /veh VPS37D (11726825_at) / RFU C10orf10 (11716522_x_at) / Fold change /veh C10orf10 (11716522_x_at) / RFU KIR2DL2 /// KIR2DL4 /// KIR2DL5A /// KIR2DL5B /// KIR2DS1 /// KIR2DS2 /// KIR2DS3 /// KIR2DS4 /// KIR3DL3 /// KIR3DL3 /// KIR3DS1 (11738374_at) / Fold change /veh KIR2DL2 /// KIR2DL4 /// KIR2DL5A /// KIR2DL5B /// KIR2DS1 /// KIR2DS2 /// KIR2DS3 /// KIR2DS4 /// KIR3DL3 /// KIR3DL3 /// KIR3DS1 (11738374_at) / RFU C1QL1 (11718748_at) / Fold change /veh C1QL1 (11718748_at) / RFU TMPRSS4 (11747572_a_at) / Fold change /veh TMPRSS4 (11747572_a_at) / RFU HAMP (11756126_x_at) / Fold change /veh HAMP (11756126_x_at) / RFU RNFT2 (11725882_a_at) / Fold change /veh RNFT2 (11725882_a_at) / RFU NR4A2 (11747474_a_at) / Fold change /veh NR4A2 (11747474_a_at) / RFU ABCC12 (11746883_a_at) / Fold change /veh ABCC12 (11746883_a_at) / RFU TMEM136 (11760407_x_at) / Fold change /veh TMEM136 (11760407_x_at) / RFU CLDN22 /// WWC2 (11732394_at) / Fold change /veh CLDN22 /// WWC2 (11732394_at) / RFU HLA-DPB1 (11760878_x_at) / Fold change /veh HLA-DPB1 (11760878_x_at) / RFU SPINT1 (11716480_a_at) / Fold change /veh SPINT1 (11716480_a_at) / RFU GAP43 (11754022_s_at) / Fold change /veh GAP43 (11754022_s_at) / RFU A4GNT (11735810_at) / Fold change /veh A4GNT (11735810_at) / RFU PRB3 (11715151_x_at) / Fold change /veh PRB3 (11715151_x_at) / RFU TUBB4B (11761932_at) / Fold change /veh TUBB4B (11761932_at) / RFU CAPN14 (11732068_a_at) / Fold change /veh CAPN14 (11732068_a_at) / RFU TMCC2 (11721928_a_at) / Fold change /veh TMCC2 (11721928_a_at) / RFU IRGQ (11745062_a_at) / Fold change /veh IRGQ (11745062_a_at) / RFU FAM174B (11720279_a_at) / Fold change /veh FAM174B (11720279_a_at) / RFU TMPRSS4 (11748680_a_at) / Fold change /veh TMPRSS4 (11748680_a_at) / RFU FAM212B (11763350_a_at) / Fold change /veh FAM212B (11763350_a_at) / RFU PLEKHG5 (11743358_a_at) / Fold change /veh PLEKHG5 (11743358_a_at) / RFU ZSCAN30 (11745921_a_at) / Fold change /veh ZSCAN30 (11745921_a_at) / RFU CMKLR1 (11741424_a_at) / Fold change /veh CMKLR1 (11741424_a_at) / RFU LOC101060620 /// MAPK8IP1 (11723275_at) / Fold change /veh LOC101060620 /// MAPK8IP1 (11723275_at) / RFU SPTSSB (11747773_x_at) / Fold change /veh SPTSSB (11747773_x_at) / RFU PRSS12 (11739890_at) / Fold change /veh PRSS12 (11739890_at) / RFU BIN1 (11741810_x_at) / Fold change /veh BIN1 (11741810_x_at) / RFU WNT11 (11732464_a_at) / Fold change /veh WNT11 (11732464_a_at) / RFU C10orf10 (11716521_a_at) / Fold change /veh C10orf10 (11716521_a_at) / RFU C5orf56 (11738089_at) / Fold change /veh C5orf56 (11738089_at) / RFU CYB561 (11721691_x_at) / Fold change /veh CYB561 (11721691_x_at) / RFU ANKRD19P (11752326_a_at) / Fold change /veh ANKRD19P (11752326_a_at) / RFU OR2T12 /// OR2T33 /// OR2T8 (11738714_s_at) / Fold change /veh OR2T12 /// OR2T33 /// OR2T8 (11738714_s_at) / RFU VCAN (11748164_a_at) / Fold change /veh VCAN (11748164_a_at) / RFU JSRP1 (11732532_at) / Fold change /veh JSRP1 (11732532_at) / RFU KRTAP10-11 (11738290_x_at) / Fold change /veh KRTAP10-11 (11738290_x_at) / RFU MYO3A (11730013_a_at) / Fold change /veh MYO3A (11730013_a_at) / RFU EBF3 (11725865_a_at) / Fold change /veh EBF3 (11725865_a_at) / RFU CAMK2N1 (11719241_x_at) / Fold change /veh CAMK2N1 (11719241_x_at) / RFU C5orf56 (11738088_a_at) / Fold change /veh C5orf56 (11738088_a_at) / RFU OLFML3 (11715873_a_at) / Fold change /veh OLFML3 (11715873_a_at) / RFU LOC100653217 /// NTM (11731650_a_at) / Fold change /veh LOC100653217 /// NTM (11731650_a_at) / RFU MAPK11 (11762145_a_at) / Fold change /veh MAPK11 (11762145_a_at) / RFU FIZ1 (11724087_x_at) / Fold change /veh FIZ1 (11724087_x_at) / RFU OASL (11726364_x_at) / Fold change /veh OASL (11726364_x_at) / RFU SOX15 (11748057_x_at) / Fold change /veh SOX15 (11748057_x_at) / RFU CD79A (11719716_a_at) / Fold change /veh CD79A (11719716_a_at) / RFU HIST1H1D (11736915_at) / Fold change /veh HIST1H1D (11736915_at) / RFU CASKIN2 (11723855_a_at) / Fold change /veh CASKIN2 (11723855_a_at) / RFU LOC730098 (11760151_x_at) / Fold change /veh LOC730098 (11760151_x_at) / RFU OR4N2 (11742367_at) / Fold change /veh OR4N2 (11742367_at) / RFU PRRT2 (11749266_a_at) / Fold change /veh PRRT2 (11749266_a_at) / RFU SNX32 (11753110_a_at) / Fold change /veh SNX32 (11753110_a_at) / RFU CDHR5 (11726645_a_at) / Fold change /veh CDHR5 (11726645_a_at) / RFU RCAN1 (11760418_a_at) / Fold change /veh RCAN1 (11760418_a_at) / RFU FAM167A (11723789_a_at) / Fold change /veh FAM167A (11723789_a_at) / RFU FAM26E (11764081_at) / Fold change /veh FAM26E (11764081_at) / RFU ISYNA1 (11749810_s_at) / Fold change /veh ISYNA1 (11749810_s_at) / RFU ACY1 (11761880_at) / Fold change /veh ACY1 (11761880_at) / RFU 11764098_at / Fold change /veh 11764098_at / RFU SAMD14 (11745864_x_at) / Fold change /veh SAMD14 (11745864_x_at) / RFU NPB (11741838_a_at) / Fold change /veh NPB (11741838_a_at) / RFU TMPRSS6 (11731388_a_at) / Fold change /veh TMPRSS6 (11731388_a_at) / RFU KRTAP10-2 (11738614_at) / Fold change /veh KRTAP10-2 (11738614_at) / RFU ARHGAP8 /// PRR5-ARHGAP8 (11727945_x_at) / Fold change /veh ARHGAP8 /// PRR5-ARHGAP8 (11727945_x_at) / RFU KRTAP5-7 /// NADSYN1 (11734609_at) / Fold change /veh KRTAP5-7 /// NADSYN1 (11734609_at) / RFU RASL12 (11751679_a_at) / Fold change /veh RASL12 (11751679_a_at) / RFU CDKN2B (11736163_a_at) / Fold change /veh CDKN2B (11736163_a_at) / RFU PRF1 (11729649_at) / Fold change /veh PRF1 (11729649_at) / RFU, ZNF638 /// ZNF638-IT1 / Fold change vs veh, ZNF638 /// ZNF638-IT1 / RFU, PANK3 / Fold change vs veh, PANK3 / RFU, SH3YL1 / Fold change vs veh, SH3YL1 / RFU, ZEB2 / Fold change vs veh, ZEB2 / RFU, NRIP1 / Fold change vs veh, NRIP1 / RFU, PTTG1IP / Fold change vs veh, PTTG1IP / RFU, CAPN2 / Fold change vs veh, CAPN2 / RFU, MED14 / Fold change vs veh, MED14 / RFU, SNORA58 / Fold change vs veh, SNORA58 / RFU, C1orf63 / Fold change vs veh, C1orf63 / RFU, LRRFIP1 / Fold change vs veh, LRRFIP1 / RFU, NDUFAF7 / Fold change vs veh, NDUFAF7 / RFU, SLC12A2 / Fold change vs veh, SLC12A2 / RFU, IBTK / Fold change vs veh, IBTK / RFU, ESF1 / Fold change vs veh, ESF1 / Fold change vs veh, TMEM50B / RFU, TAOK1 / Fold change vs veh, TAOK1 / RFU, ACBD3 / Fold change vs veh, ACBD3 / RFU, TMA16 / Fold change vs veh, TMA16 / RFU, RWDD3 / Fold change vs veh, RWDD3 / RFU, BCAT1 / Fold change vs veh, BCAT1 / RFU, EDEM3 / Fold change vs veh, EDEM3 / RFU, TMEM33 / Fold change vs veh, TMEM33 / RFU, WDR75 / Fold change vs veh, WDR75 / RFU, AHCTF1 / Fold change vs veh, AHCTF1 / RFU, TFRC / Fold change vs veh, TFRC / RFU, ZDHHC17 / Fold change vs veh, ZDHHC17 / RFU, NOM1 / Fold change vs veh, NOM1 / RFU, ARL8B / Fold change vs veh, ARL8B / RFU, ZBTB11 / Fold change vs veh, ZBTB11 / RFU, TAMM41 / Fold change vs veh, TAMM41 / RFU, KIAA1704 /// LOC100996395 / Fold change vs veh, KIAA1704 /// LOC100996395 / RFU, ING1 / Fold change vs veh, ING1 / RFU, TRMT61B / Fold change vs veh, TRMT61B / RFU, FUBP3 / Fold change vs veh, FUBP3 / RFU, TP53 / Fold change vs veh, TP53 / RFU, TNKS2 / Fold change vs veh, TNKS2 / RFU, ZFP14 / Fold change vs veh, ZFP14 / RFU, ACTR2 / Fold change vs veh, ACTR2 / RFU, PPP3R1 / Fold change vs veh, PPP3R1 / RFU, PIK3R1 / Fold change vs veh, PIK3R1 / RFU, HNRNPA1 / Fold change vs veh, HNRNPA1 / RFU, RNF170 / Fold change vs veh, RNF170 / RFU, ZNF28 / Fold change vs veh, ZNF28 / RFU, RNGTT / Fold change vs veh, RNGTT / RFU, OGT / Fold change vs veh, OGT / RFU, BRD1 / Fold change vs veh, BRD1 / RFU, MARS / Fold change vs veh, MARS / RFU, ZNF655 / Fold change vs veh, ZNF655 / RFU, FAHD1 / Fold change vs veh, FAHD1 / RFU, BDP1 / Fold change vs veh, BDP1 / RFU, LRRCC1 / Fold change vs veh, LRRCC1 / RFU, ARID1A / Fold change vs veh, ARID1A / RFU, ZNF146 / Fold change vs veh, ZNF146 / RFU, ZNF330 / Fold change vs veh, ZNF330 / RFU, GPN3 / Fold change vs veh, GPN3 / RFU, C9orf123 / Fold change vs veh, C9orf123 / RFU, N4BP2L2 / Fold change vs veh, N4BP2L2 / RFU, ARFIP1 / Fold change vs veh, ARFIP1 / RFU, FAM179B / Fold change vs veh, FAM179B / RFU, BCL10 / Fold change vs veh, BCL10 / RFU, UHRF1BP1L / Fold change vs veh, UHRF1BP1L / RFU, BET1 / Fold change vs veh, BET1 / RFU, CNOT2 / Fold change vs veh, CNOT2 / RFU, ZNF268 / Fold change vs veh, ZNF268 / Fold change vs veh, ZNF507 / RFU, DGCR2 / Fold change vs veh, DGCR2 / RFU, WDSUB1 / Fold change vs veh, WDSUB1 / Fold change vs veh, HSP90B1 /// MIR3652 / RFU, ADSS / Fold change vs veh, ADSS / RFU, GK / Fold change vs veh, GK / RFU, ZNF148 / Fold change vs veh, ZNF148 / RFU, TAF9 / Fold change vs veh, TAF9 / RFU, SLC1A5 / Fold change vs veh, SLC1A5 / RFU, SLMO2 / Fold change vs veh, SLMO2 / RFU, ABCC4 / Fold change vs veh, ABCC4 / RFU, LOC101060439 /// RAP1B / Fold change vs veh, LOC101060439 /// RAP1B / RFU, RFX7 / Fold change vs veh, RFX7 / RFU, GTPBP10 / Fold change vs veh, GTPBP10 / RFU, CNEP1R1 / Fold change vs veh, CNEP1R1 / RFU, BIVM-ERCC5 /// ERCC5 / Fold change vs veh, BIVM-ERCC5 /// ERCC5 / RFU, ILF3 / Fold change vs veh, ILF3 / RFU 11762660_at / Fold change /veh 11762660_at / RFU VCAN (11757783_s_at) / Fold change /veh VCAN (11757783_s_at) / RFU DDX43 (11728927_at) / Fold change /veh DDX43 (11728927_at) / RFU KRT8 (11758188_x_at) / Fold change /veh KRT8 (11758188_x_at) / RFU NKD1 (11759106_at) / Fold change /veh NKD1 (11759106_at) / RFU SRD5A1 (11742802_a_at) / Fold change /veh SRD5A1 (11742802_a_at) / RFU TPSAB1 /// TPSB2 (11721975_s_at) / Fold change /veh TPSAB1 /// TPSB2 (11721975_s_at) / RFU GSTM3 (11746129_a_at) / Fold change /veh GSTM3 (11746129_a_at) / RFU IL23R (11737362_x_at) / Fold change /veh IL23R (11737362_x_at) / RFU TMEM51 (11727254_a_at) / Fold change /veh TMEM51 (11727254_a_at) / RFU PIWIL2 (11732686_x_at) / Fold change /veh PIWIL2 (11732686_x_at) / RFU ORM1 (11744905_x_at) / Fold change /veh ORM1 (11744905_x_at) / RFU CCDC152 (11743942_at) / Fold change /veh CCDC152 (11743942_at) / RFU ECM1 (11717891_a_at) / Fold change /veh ECM1 (11717891_a_at) / RFU IL23R (11748794_a_at) / Fold change /veh IL23R (11748794_a_at) / RFU TNFAIP8L3 (11732012_x_at) / Fold change /veh TNFAIP8L3 (11732012_x_at) / RFU MBOAT4 (11741988_at) / Fold change /veh MBOAT4 (11741988_at) / RFU 11764193_at / Fold change /veh 11764193_at / RFU TMEM53 (11763286_at) / Fold change /veh TMEM53 (11763286_at) / RFU MAGEB2 (11727129_at) / Fold change /veh MAGEB2 (11727129_at) / RFU TMEM200A (11744735_a_at) / Fold change /veh TMEM200A (11744735_a_at) / RFU CCDC152 (11751479_a_at) / Fold change /veh CCDC152 (11751479_a_at) / RFU FAM211A (11726209_a_at) / Fold change /veh FAM211A (11726209_a_at) / RFU RGS16 (11746705_a_at) / Fold change /veh RGS16 (11746705_a_at) / RFU VCAN (11755009_s_at) / Fold change /veh VCAN (11755009_s_at) / RFU RHOB (11743442_s_at) / Fold change /veh RHOB (11743442_s_at) / RFU RGS16 (11720943_a_at) / Fold change /veh RGS16 (11720943_a_at) / RFU RGS16 (11720944_at) / Fold change /veh RGS16 (11720944_at) / RFU, VPS4B / Fold change vs veh, VPS4B / RFU, CREB1 / Fold change vs veh, CREB1 / RFU, DNAJC13 / Fold change vs veh, DNAJC13 / RFU, GNAQ / Fold change vs veh, GNAQ / RFU, CDK5R1 / Fold change vs veh, CDK5R1 / RFU, ZRANB3 / Fold change vs veh, ZRANB3 / RFU, CUL4A / Fold change vs veh, CUL4A / RFU, CCNY / Fold change vs veh, CCNY / RFU, UFL1 / Fold change vs veh, UFL1 / RFU, COG3 / Fold change vs veh, COG3 / RFU, DIAPH2 / Fold change vs veh, DIAPH2 / RFU, SKA2 / Fold change vs veh, SKA2 / RFU, AFF3 / Fold change vs veh, AFF3 / RFU, LMF1 / Fold change vs veh, LMF1 / RFU, IPO11 / Fold change vs veh, IPO11 / RFU, DFFB / Fold change vs veh, DFFB / RFU, FOXP1 / Fold change vs veh, FOXP1 / RFU, CARD8 / Fold change vs veh, CARD8 / RFU, STRN3 / Fold change vs veh, STRN3 / RFU, ADK / Fold change vs veh, ADK / RFU, RASSF2 / Fold change vs veh, RASSF2 / RFU, WIPF1 / Fold change vs veh, WIPF1 / RFU, LARP1B / Fold change vs veh, LARP1B / RFU, RASA1 / Fold change vs veh, RASA1 / RFU, RB1 / Fold change vs veh, RB1 / RFU, PPFIA1 / Fold change vs veh, PPFIA1 / RFU, MAT2A / Fold change vs veh, MAT2A / RFU, CCT5 / Fold change vs veh, CCT5 / RFU, WDR92 / Fold change vs veh, WDR92 / RFU, CUX1 / Fold change vs veh, CUX1 / RFU, TTC7A / Fold change vs veh, TTC7A / RFU, TMEM135 / Fold change vs veh, TMEM135 / RFU, DEPTOR / Fold change vs veh, DEPTOR / RFU, CPM / Fold change vs veh, CPM / RFU, DNAJB6 / Fold change vs veh, DNAJB6 / RFU, CACNA2D3 / Fold change vs veh, CACNA2D3 / RFU, DTX4 / Fold change vs veh, DTX4 / RFU, TFCP2 / Fold change vs veh, TFCP2 / RFU, GMCL1 /// GMCL1P1 / Fold change vs veh, GMCL1 /// GMCL1P1 / RFU, AEBP2 / Fold change vs veh, AEBP2 / RFU, SNHG1 /// SNORD22 /// SNORD25 /// SNORD26 /// SNORD27 /// SNORD28 /// SNORD29 /// SNORD31 / Fold change vs veh, SNHG1 /// SNORD22 /// SNORD25 /// SNORD26 /// SNORD27 /// SNORD28 /// SNORD29 /// SNORD31 / Fold change (Aza/veh), C12orf56 (ProbeSet 11735607_a_at) / Fold change (ACY-1035/veh), C12orf56 (ProbeSet 11735607_a_at) / Fold change (Aza/veh), FGFR1OP (ProbeSet 11751329_s_at) / Fold change (ACY-1035/veh), FGFR1OP (ProbeSet 11751329_s_at) / Fold change (Aza/veh), VPS36 (ProbeSet 11739960_a_at) / Fold change (ACY-1035/veh), VPS36 (ProbeSet 11739960_a_at) / RFU SYPL1 (11715823_x_at) / Fold change /veh SYPL1 (11715823_x_at) / RFU IGFBP7 (11715501_s_at) / Fold change /veh IGFBP7 (11715501_s_at) / RFU REEP3 (11722064_at) / Fold change /veh REEP3 (11722064_at) / RFU IGLL1 (11728026_x_at) / Fold change /veh IGLL1 (11728026_x_at): dose or concentration left out as unconfirmed
Details: MV-4-11 cells, 48 hours

Nc1ccc(-c2cccs2)cc1NC(=O)c1ccc2c(c1)cc(C1CC1)n2CCN1CCOCC1 [ACY-1035]
Fold change /veh ZSCAN30 (11745921_a_at): 1.04
